Tests used:
[1] = system: REM sleep deprivation induced hyperalgesia; assay: REM sleep deprivation induced hyperalgesia (modified flowerpot technique, hot plate method); type: in vivo, Male albino Wistar rats
Excerpt: The modified flowerpot technique was used to induce REM sleep deprivation. In this method, rats are placed on elevated platforms in a water tank for 96 hrs. During REM sleep muscle atonia occurs as a result of which when an animal enters REM sleep it falls from the platform into the water. Therefore the animal wakes up and climbs onto platform again. This method prevents REM sleep and permits other sleep stages.
The paws of rats are very sensitive to heat at temperatures which are not damaging to the skin. The responses shown by rats placed on a hot plate are jumping, withdrawal of the paws and licking of the paws. This test is thus used to assess the pain threshold and the animal's response to mild painful stimuli.
To induce sleep deprivation, an acrylic box (24 cm×18 cm×18 cm) with platforms of height 9 cm and 6 cm diameter was used. Water was filled, in the box upto a level of 1 cm below the platform. 6 animals were placed on each platform for 96 hrs. One platform was kept vacant to reduce immobilization stress. […] The responses of the animals to painful stimuli were observed (licking of paws, jumping, paw withdrawal) and the duration of time the animal could remain on the hot plate was recorded. […] One hour after application of the test substances, the animals were again subjected to the hot plate and the response was evaluated. […]

[2] = system: carrageenan induced paw oedema; assay: Carrageenan induced paw oedema in rats (topical application, plethysmographic paw volume); settings: mean ± SD, n = 6; for Paw volume, carrageenan induced paw oedema: topical application 7 days + day 8; for Percentage change in carrageenan induced paw oedema (paw volume): ((Vt−Vo)/Vo)×100

## O=C(O)Cc1ccccc1Nc1c(Cl)cccc1Cl [Diclofenac]
[1]; after minus before formulation, hot plate
  Increase in paw withdrawal time: 6.00
[1]; hot plate 50±2° C. after 96 hrs REM sleep deprivation, before application of test substance, cut-off 60 seconds, mean ± SD, n = 6
  Paw withdrawal time, before formulation: 6.67 ± 3.33 s
[2]; 0 hr (immediately before carrageenan)
  Paw volume, carrageenan induced paw oedema: 0.23 ± 0.05
[2]; 2 hr after carrageenan
  Paw volume, carrageenan induced paw oedema: 0.67 ± 0.06
[2]; 2 hr vs 0 hr
  Percentage change in carrageenan induced paw oedema (paw volume): 202.5 ± 79.48%
[2]; 5 hr after carrageenan
  Paw volume, carrageenan induced paw oedema: 0.38 ± 0.05
[2]; 5 hr vs 0 hr
  Percentage change in carrageenan induced paw oedema (paw volume): 75 ± 82.15 %
[2]; 24 hr after carrageenan
  Paw volume, carrageenan induced paw oedema: 0.20 ± 0.05
[2]; 24 hr vs 0 hr
  Percentage change in carrageenan induced paw oedema (paw volume): −16.66 ± 25.81 %

Reference: US10682382B2, “Composition for relieving pain, stress and insomnia” (priority 2014, dated 2020)
